Columns and labels:
Assay in all cases: relative viability (nuclei count vs DMSO), 5 days (fraction); higher = more cells survive
[1] = compound: C#Cc1cccc(Nc2ncnc3cc(OC)c(OCCCCCCC(=O)NO)cc23)c1 [CUDC-101]
Summary of the method: (§1)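 Lung cancer cell lines in 1536-well plates were exposed by pinning to five library-drug doses (not always all listed) √10 apart, following an overnight hold at 37 °C. MetaXpress counted Hoechst-stained nuclei from 4× images taken after 5 days without medium change. Viability is the median ratio of treated-well to vehicle-well nuclei across plates. Plates required control CV below 25% and at least one doubling.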

[2] = compound: C1=CC=C2C(=C1)N=C(S2)C(C#N)C3=NC(=NC=C3)NCCC4=CN=CC=C4
Summary of the method: as §1

[3] = compound: COc1cc(N2CCC(N3CCN(C)CC3)CC2)ccc1Nc1ncc(Cl)c(Nc2ccccc2S(=O)(=O)C(C)C)n1 [NVP-TAE684]
Summary of the method: as §1

[4] = compound: COc1cc2/c(=N/c3ccc(Br)cc3F)nc[nH]c2cc1OCC1CCN(C)CC1 [Vandetanib]
Summary of the method: as §1

Row | Cell Line | relative viability ([1]; 0.01 µM) | relative viability ([1]; 0.03162 µM) | relative viability ([1]; 0.1 µM) | relative viability ([1]; 0.3162 µM) | relative viability ([1]; 1 µM) | relative viability ([2]; 0.005 µM) | relative viability ([2]; 0.01581 µM) | relative viability ([2]; 0.05 µM) | relative viability ([2]; 0.1581 µM) | relative viability ([2]; 0.5 µM) | relative viability ([3]; 0.2 µM) | relative viability ([3]; 0.6325 µM) | relative viability ([3]; 2 µM) | relative viability ([4]; 0.02 µM) | relative viability ([4]; 0.06325 µM) | relative viability ([4]; 0.2 µM) | relative viability ([4]; 0.6325 µM) | relative viability ([4]; 2 µM)
1 | LCLC-97TM1 | 1.05 | 0.917 | 1.06 | 1.02 | 0.832 | 0.944 | 0.991 | 0.974 | 1.13 | 1.08 | 0.897 | 0.735 | 0.471 | 1.05 | 0.939 | 1.01 | 1.05 | 0.832
2 | ABC-1 | 0.95 | 0.978 | 0.938 | 0.812 | 0.453 | 0.974 | 0.826 | 1.08 | 1.07 | 0.835 | 0.969 | 0.624 | 0.537 | 0.827 | 0.917 | 0.844 | 0.908 | 0.628
3 | NCI-H596 | 0.97 | 1.01 | 1.04 | 1.05 | 0.88 | 0.791 | 0.962 | 1.01 | 1.07 | 0.928 | 0.959 | 1.03 | – | 0.937 | 0.876 | 0.954 | 0.993 | 1
4 | NCI-H2228 | 1.02 | 1.23 | 0.946 | 1.09 | 1.07 | 0.839 | 1.12 | 0.962 | 1.17 | 0.956 | 0.632 | 0.36 | 0.29 | 1.04 | 0.983 | 0.836 | 1.12 | 0.809
5 | PC-14 | 1.12 | 0.837 | 0.602 | 0.537 | 0.273 | 0.919 | 1.07 | 0.95 | 1.15 | 0.902 | 0.998 | 1.01 | 0.921 | 0.987 | 0.833 | 0.574 | 0.369 | 0.223
6 | H3255 | 1 | 0.912 | 0.454 | 0.658 | 0.273 | 1.04 | 0.922 | 0.964 | 1.06 | 0.981 | 0.947 | 0.859 | 0.754 | 0.998 | 0.934 | 0.845 | 0.573 | 0.355
7 | NCI-H441 | 1.04 | 1.09 | 0.981 | 1.13 | 0.844 | – | 1.12 | 1 | 1.27 | 0.871 | 0.898 | 1.15 | 0.587 | 1.03 | 0.948 | 0.983 | 1.15 | 0.939

Source: the supplement of paper PMC10307832
